Results: US11505835B2, “Method for determining the identity and antimicrobial susceptibility of a microorganism” (Q-linea AB, priority 2014, dated 2022)
≈ marks a conversion by molar mass, not a printed value.

Columns and labels:
E. coli [1] = conditions: determined by another lab; cited from earlier work
E. coli [2] = experiment: AST by counting individual bacteria in a flow cytometry type instrument (Aquila 400); MIC from differential growth relative to positive control; assay type: cell-based
Method: The sample was enriched for bacteria and at the same time the culture media was changed, in this case to Mueller-Hinton media (MH-media). E. coli bacteria were recovered via filtration through a 0.2 μm filter and the recovered bacteria were resuspended in MH-media to a concentration of approximately 10^8 CFU/ml in Müller Hinton broth before being diluted to approximately 10^6 CFU/ml in Müller Hinton Broth. Antibiotic solutions were prepared in a series of 2:1 serial dilutions in Müller Hinton broth at 10×test concentrations. The range of antibiotic concentrations was chosen based on identity of the bacteria and the antibiotic. […] A series of eight different concentrations was selected based on known clinical MIC values. Eight sample tubes containing 100 μl antibiotic solution at eight different concentrations and 800 μl Müller Hinton broth were prepared. One additional tube contains 900 μl Müller Hinton broth and no antibiotic as positive control. 100 μl bacterial suspension (10^6 CFU/ml) was added to all nine tubes. A negative control sample comprising 1000 μl Müller Hinton broth (i.e. no bacteria) is prepared as negative control. All tubes were incubated at 35° C. and samples were taken after 0, 4, 6 and 24 hours. Bacterial samples were prepared for counting as in Example 2. Bacterial AST profiles were determined using a flow cytometry based counting of individual bacteria in an Aquila 400 instrument (Q-linea AB, Sweden). Aquila 400 analysis was performed using the alexa 488 laser. […] MIC values for each antibiotic at different time points and cut-off values were calculated based on the differential bacterial growth.

E. coli [3] = experiment: MIC with Macrobroth dilution; assay type: cell-based; conditions: reference method; for MIC: Escherichia coli
[4] = Escherichia coli, 4 h, cut-off 15%, 4 hours, Müller Hinton broth, 35° C., read-out: MIC
[5] = Escherichia coli, 4 h, cut-off 20%, 4 hours, Müller Hinton broth, 35° C., read-out: MIC
[6] = Escherichia coli, 6 h, cut-off 5%, 6 hours, Müller Hinton broth, 35° C., read-out: MIC
[7] = Escherichia coli, 6 h, cut-off 10%, 6 hours, Müller Hinton broth, 35° C., read-out: MIC
[8] = Escherichia coli, 6 h, cut-off 15%, 6 hours, Müller Hinton broth, 35° C., read-out: MIC
[9] = Escherichia coli, 6 h, cut-off 20%, 6 hours, Müller Hinton broth, 35° C., read-out: MIC
[10] = Escherichia coli, 24 h, cut-off 15%, 24 hours, Müller Hinton broth, 35° C., read-out: MIC
[11] = Escherichia coli, 24 h, cut-off 20%, 24 hours, Müller Hinton broth, 35° C., read-out: MIC
[12] = Escherichia coli, 4 h, cut-off 5%, 4 hours, Müller Hinton broth, 35° C., read-out: MIC
[13] = Escherichia coli, 4 h, cut-off 10%, 4 hours, Müller Hinton broth, 35° C., read-out: MIC
[14] = Escherichia coli, 24 h, cut-off 5%, 24 hours, Müller Hinton broth, 35° C., read-out: MIC
[15] = Escherichia coli, 24 h, cut-off 10%, 24 hours, Müller Hinton broth, 35° C., read-out: MIC

| Compound | MIC with E-test (E. coli [1]) [µg/mL] | MIC (E. coli [2]; [4]) [µg/mL] | MIC (E. coli [2]; [5]) [µg/mL] | MIC (E. coli [2]; [6]) [µg/mL] | MIC (E. coli [2]; [7]) [µg/mL] | MIC (E. coli [2]; [8]) [µg/mL] | MIC (E. coli [2]; [9]) [µg/mL] | MIC (E. coli [2]; [10]) [µg/mL] | MIC (E. coli [2]; [11]) [µg/mL] | MIC (E. coli [3]) [µg/mL] | MIC (E. coli [2]; [12]) [µg/mL] | MIC (E. coli [2]; [13]) [µg/mL] | MIC (E. coli [2]; [14]) [µg/mL] | MIC (E. coli [2]; [15]) [µg/mL] | further results |
| --- | --- | --- | --- | --- | --- | --- | --- | --- | --- | --- | --- | --- | --- | --- | --- |
| CO/N=C(\C(=O)N[C@@H]1C(=O)N2C(C(=O)O)=C(COC(C)=O)CS[C@H]12)c1csc(N)n1 [Cefotaxime] | ≤ 0.5 | 0.06 (≈ 0.132 µM) | 0.06 (≈ 0.132 µM) | 0.06 (≈ 0.132 µM) | 0.06 (≈ 0.132 µM) | 0.03 (≈ 0.0659 µM) | 0.03 (≈ 0.0659 µM) | 0.06 (≈ 0.132 µM) | 0.06 (≈ 0.132 µM) | – | – | – | – | – | – |
| O=C(O)c1cn(C2CC2)c2cc(N3CCNCC3)c(F)cc2c1=O [Ciprofloxacin] | ≤ 0.03 | 0.008 (≈ 0.0241 µM) | 0.008 (≈ 0.0241 µM) | 0.008 (≈ 0.0241 µM) | 0.008 (≈ 0.0241 µM) | 0.008 (≈ 0.0241 µM) | 0.004 (≈ 0.0121 µM) | 0.008 (≈ 0.0241 µM) | 0.008 (≈ 0.0241 µM) | 0.016 (≈ 0.0483 µM) | 0.016 (≈ 0.0483 µM) | 0.008 (≈ 0.0241 µM) | 0.008 (≈ 0.0241 µM) | 0.008 (≈ 0.0241 µM) | – |
| CC(C)(O/N=C(\C(=O)N[C@@H]1C(=O)N2C(C(=O)[O-])=C(C[n+]3ccccc3)CS[C@H]12)c1csc(N)n1)C(=O)O [Ceftazidime] | ≤ 0.5 | – | – | – | – | – | – | 0.25 (≈ 0.457 µM) | 0.25 (≈ 0.457 µM) | 0.25 (≈ 0.457 µM) | 0.25 (≈ 0.457 µM) | 0.25 (≈ 0.457 µM) | 0.25 (≈ 0.457 µM) | 0.25 (≈ 0.457 µM) | – |
| Gentamicin | 1 | – | – | – | – | – | – | – | – | – | – | – | – | – | MIC with Macrobroth dilution (E. coli [3]): 0.5 to 1 µg/mL; MIC (E. coli [2]; cut-off 5%, 4 hours, Müller Hinton broth, 35° C.): 1 µg/mL; MIC (E. coli [2]; cut-off 5%, 6 hours, Müller Hinton broth, 35° C.): 0.5 µg/mL; MIC (E. coli [2]; cut-off 5%, 24 hours, Müller Hinton broth, 35° C.): 1 µg/mL; MIC (E. coli [2]; cut-off 10%, 4 hours, Müller Hinton broth, 35° C.): 0.5 µg/mL; MIC (E. coli [2]; cut-off 10%, 6 hours, Müller Hinton broth, 35° C.): 0.5 µg/mL; MIC (E. coli [2]; cut-off 10%, 24 hours, Müller Hinton broth, 35° C.): 1 µg/mL; MIC (E. coli [2]; cut-off 15%, 4 hours, Müller Hinton broth, 35° C.): 0.5 µg/mL; MIC (E. coli [2]; cut-off 15%, 6 hours, Müller Hinton broth, 35° C.): 0.5 µg/mL; MIC (E. coli [2]; cut-off 15%, 24 hours, Müller Hinton broth, 35° C.): 1 µg/mL; MIC (E. coli [2]; cut-off 20%, 4 hours, Müller Hinton broth, 35° C.): 0.5 µg/mL; MIC (E. coli [2]; cut-off 20%, 6 hours, Müller Hinton broth, 35° C.): 0.5 µg/mL; MIC (E. coli [2]; cut-off 20%, 24 hours, Müller Hinton broth, 35° C.): 1 µg/mL |
| C[C@@H](O)[C@H]1C(=O)N2C(C(=O)O)=C(S[C@@H]3CN[C@H](C(=O)N(C)C)C3)[C@H](C)[C@H]12 [Meropenem] | ≤ 0.25 | – | 0.5 (≈ 1.3 µM) | – | – | 0.5 (≈ 1.3 µM) | 0.25 (≈ 0.652 µM) | 0.25 (≈ 0.652 µM) | – | 0.25 to 0.5 (≈ 0.652 to 1.3 µM) | – | – | 0.5 (≈ 1.3 µM) | 0.5 (≈ 1.3 µM) | MIC (E. coli [2]; Escherichia coli, 24 h): 0.125 µg/mL (≈ 0.326 µM) |
